Data taken from ChEMBL document CHEMBL4627246, “Pyroglutamide-Based P2X7 Receptor Antagonists Targeting Inflammatory Bowel Disease” (J Med Chem, 2020).

Key:
Assay type in all cases: cell-based
MDA-MB-435 = assay: Cytotoxicity against human MDA-MB-435 cells assessed as effect on cell growth at 10 uM incubated for 48 hrs by sulforhodamine B assay; details: mda-mb-435, 48 h
MOLT-4 = assay: Cytotoxicity against human MOLT4 cells assessed as effect on cell growth at 10 uM incubated for 48 hrs by sulforhodamine B assay; details: molt-4, 48 h
UACC-62 = assay: Cytotoxicity against human UACC62 cells assessed as effect on cell growth at 10 uM incubated for 48 hrs by sulforhodamine B assay; details: uacc-62, 48 h
HOP-62 = assay: Cytotoxicity against human HOP62 cells assessed as effect on cell growth at 10 uM incubated for 48 hrs by sulforhodamine B assay; details: hop-62, 48 h
SF-539 = assay: Cytotoxicity against human SF539 cells assessed as effect on cell growth at 10 uM incubated for 48 hrs by sulforhodamine B assay; details: sf-539, 48 h
SK-MEL-2 = assay: Cytotoxicity against human SK-MEL-2 cells assessed as effect on cell growth at 10 uM incubated for 48 hrs by sulforhodamine B assay; details: sk-mel-2, 48 h
SK-MEL-5 = assay: Cytotoxicity against human SK-MEL-5 cells assessed as effect on cell growth at 10 uM incubated for 48 hrs by sulforhodamine B assay; details: sk-mel-5, 48 h
A549 = assay: Cytotoxicity against human A549/ATCC cells assessed as effect on cell growth at 10 uM incubated for 48 hrs by sulforhodamine B assay; details: a549, 48 h
SR = assay: Cytotoxicity against human SR cells assessed as effect on cell growth at 10 uM incubated for 48 hrs by sulforhodamine B assay
OVCAR-3 = assay: Cytotoxicity against human OVCAR3 cells assessed as effect on cell growth at 10 uM incubated for 48 hrs by sulforhodamine B assay; details: ovcar-3, 48 h
SNB-75 = assay: Cytotoxicity against human SNB75 cells assessed as effect on cell growth at 10 uM incubated for 48 hrs by sulforhodamine B assay; details: snb-75, 48 h
HOP-92 = assay: Cytotoxicity against human HOP92 cells assessed as effect on cell growth at 10 uM incubated for 48 hrs by sulforhodamine B assay; details: hop-92, 48 h
NCI-H226 = assay: Cytotoxicity against human NCI-H226 cells assessed as effect on cell growth at 10 uM incubated for 48 hrs by sulforhodamine B assay; details: nci-h226, 48 h
Hs-578T = assay: Cytotoxicity against human Hs 578T cells assessed as effect on cell growth at 10 uM incubated for 48 hrs by sulforhodamine B assay
NCI-H522 = assay: Cytotoxicity against human NCI-H522 cells assessed as effect on cell growth at 10 uM incubated for 48 hrs by sulforhodamine B assay; details: nci-h522, 48 h
M14 = assay: Cytotoxicity against human M14 cells assessed as effect on cell growth at 10 uM incubated for 48 hrs by sulforhodamine B assay; details: m14, 48 h
HCT-116 = assay: Cytotoxicity against human HCT116 cells assessed as effect on cell growth at 10 uM incubated for 48 hrs by sulforhodamine B assay; details: hct-116, 48 h
HL-60(TB) = assay: Cytotoxicity against human HL-60(TB) cells assessed as effect on cell growth at 10 uM incubated for 48 hrs by sulforhodamine B assay
HCC 2998 = assay: Cytotoxicity against human HCC2998 cells assessed as effect on cell growth at 10 uM incubated for 48 hrs by sulforhodamine B assay; details: hcc 2998, 48 h
CCRF-CEM = assay: Cytotoxicity against human CCRF-CEM cells assessed as effect on cell growth at 10 uM incubated for 48 hrs by sulforhodamine B assay

Measured: Activity

COc1ccc(CN2C(=O)[C@@H]3C/C(=C\N(C)C)C(=O)N3C2N(C)C)c(OC)c1 (stereo not given in full)
Non-Toxic: MDA-MB-435 | MOLT-4 | UACC-62 | HOP-62 | SF-539 | SK-MEL-2 | SK-MEL-5 | A549 | SR | OVCAR-3 | SNB-75 | HOP-92 | NCI-H226 | Hs-578T | NCI-H522 | M14 | HCT-116 | HL-60(TB) | HCC 2998 | CCRF-CEM

O=C(NCCc1ccccc1)[C@@H]1CCC(=O)N1Cc1ccc(Br)cc1
Non-Toxic: MDA-MB-435 | MOLT-4 | UACC-62 | HOP-62 | SF-539 | SK-MEL-2 | SK-MEL-5 | A549 | SR | OVCAR-3 | SNB-75 | HOP-92 | NCI-H226 | Hs-578T | NCI-H522 | M14 | HCT-116 | HL-60(TB) | HCC 2998 | CCRF-CEM

O=C(NCc1ccc(Cl)cc1Cl)[C@@H]1CCC(=O)N1Cc1ccc(Cl)cc1
Non-Toxic: MDA-MB-435 | MOLT-4 | UACC-62 | HOP-62 | SF-539 | SK-MEL-2 | SK-MEL-5 | A549 | SR | OVCAR-3 | SNB-75 | HOP-92 | NCI-H226 | Hs-578T | NCI-H522 | M14 | HCT-116 | HL-60(TB) | HCC 2998 | CCRF-CEM

O=C(Nc1ccc(Cl)cc1Cl)[C@@H]1CCC(=O)N1Cc1ccccc1Cl
Non-Toxic: MDA-MB-435 | MOLT-4 | UACC-62 | HOP-62 | SF-539 | SK-MEL-2 | SK-MEL-5 | A549 | SR | OVCAR-3 | SNB-75 | HOP-92 | NCI-H226 | Hs-578T | NCI-H522 | M14 | HCT-116 | HL-60(TB) | HCC 2998 | CCRF-CEM

O=C(NCc1ccccc1Cl)[C@@H]1CCC(=O)N1Cc1ccccc1Cl
Non-Toxic: MDA-MB-435 | MOLT-4 | UACC-62 | HOP-62 | SF-539 | SK-MEL-2 | SK-MEL-5 | A549 | SR | OVCAR-3 | SNB-75 | HOP-92 | NCI-H226 | Hs-578T | NCI-H522 | M14 | HCT-116 | HL-60(TB) | HCC 2998 | CCRF-CEM

O=C(NCc1ccccc1Cl)[C@@H]1CCC(=O)N1c1ccccc1
Non-Toxic: MDA-MB-435 | MOLT-4 | UACC-62 | HOP-62 | SF-539 | SK-MEL-2 | SK-MEL-5 | A549 | SR | OVCAR-3 | SNB-75 | HOP-92 | NCI-H226 | Hs-578T | NCI-H522 | M14 | HCT-116 | HL-60(TB) | HCC 2998 | CCRF-CEM

COc1ccc(NC(=O)[C@@H]2C/C(=C\N(C)C)C(=O)N2)cc1
Non-Toxic: MDA-MB-435 | MOLT-4 | UACC-62 | HOP-62 | SF-539 | SK-MEL-2 | SK-MEL-5 | A549 | SR | OVCAR-3 | SNB-75 | HOP-92 | NCI-H226 | Hs-578T | NCI-H522 | M14 | HCT-116 | HL-60(TB) | HCC 2998 | CCRF-CEM

O=C(NCc1ccc(Cl)cc1Cl)[C@@H]1CCC(=O)N1c1ccc(Cl)cc1Cl
Non-Toxic: MDA-MB-435 | MOLT-4 | UACC-62 | HOP-62 | SF-539 | SK-MEL-2 | SK-MEL-5 | A549 | SR | OVCAR-3 | SNB-75 | HOP-92 | NCI-H226 | Hs-578T | NCI-H522 | M14 | HCT-116 | HL-60(TB) | HCC 2998 | CCRF-CEM

COc1ccc(CNC(=O)[C@@H]2CCC(=O)N2Cc2ccc(Cl)cc2Cl)c(OC)c1
Non-Toxic: MDA-MB-435 | MOLT-4 | UACC-62 | HOP-62 | SF-539 | SK-MEL-2 | SK-MEL-5 | A549 | SR | OVCAR-3 | SNB-75 | HOP-92 | NCI-H226 | Hs-578T | NCI-H522 | M14 | HCT-116 | HL-60(TB) | HCC 2998 | CCRF-CEM

O=C(NCCc1ccc(Cl)cc1Cl)[C@@H]1CCC(=O)N1c1ccccc1
Non-Toxic: MDA-MB-435 | MOLT-4 | UACC-62 | HOP-62 | SF-539 | SK-MEL-2 | SK-MEL-5 | A549 | SR | OVCAR-3 | SNB-75 | HOP-92 | NCI-H226 | Hs-578T | NCI-H522 | M14 | HCT-116 | HL-60(TB) | HCC 2998 | CCRF-CEM

O=C(NCc1ccc(Cl)cc1Cl)c1ccccn1
Non-Toxic: MDA-MB-435 | MOLT-4 | UACC-62 | HOP-62 | SF-539 | SK-MEL-2 | SK-MEL-5 | A549 | SR | OVCAR-3 | SNB-75 | HOP-92 | NCI-H226 | Hs-578T | NCI-H522 | M14 | HCT-116 | HL-60(TB) | HCC 2998 | CCRF-CEM

O=C(NCc1ccccc1Cl)[C@@H]1CCC(=O)N1Cc1ccc(Cl)cc1
Non-Toxic: MDA-MB-435 | MOLT-4 | UACC-62 | HOP-62 | SF-539 | SK-MEL-2 | SK-MEL-5 | A549 | SR | OVCAR-3 | SNB-75 | HOP-92 | NCI-H226 | Hs-578T | NCI-H522 | M14 | HCT-116 | HL-60(TB) | HCC 2998 | CCRF-CEM

CCCCCCN1C(=O)[C@@H]2C/C(=C\N(C)C)C(=O)N2C1N(C)C (stereo not given in full)
Non-Toxic: MDA-MB-435 | MOLT-4 | UACC-62 | HOP-62 | SF-539 | SK-MEL-2 | SK-MEL-5 | A549 | SR | OVCAR-3 | SNB-75 | HOP-92 | NCI-H226 | Hs-578T | NCI-H522 | M14 | HCT-116 | HL-60(TB) | HCC 2998 | CCRF-CEM

O=C(NCc1ccc(Cl)cc1Cl)[C@@H]1CCC(=O)N1c1ccccc1
Non-Toxic: MDA-MB-435 | MOLT-4 | UACC-62 | HOP-62 | SF-539 | SK-MEL-2 | SK-MEL-5 | A549 | SR | OVCAR-3 | SNB-75 | HOP-92 | NCI-H226 | Hs-578T | NCI-H522 | M14 | HCT-116 | HL-60(TB) | HCC 2998 | CCRF-CEM
